Earlier results, collected in patent publication US5281421A, “Gemfibrozil formulations” (Warner-Lambert Company, priority 1992, dated 1994).

Conditions: particularly in a highly acidic medium

**Q.** Which solubility in water does the source give for `Cc1ccc(C)c(OCCCC(C)(C)C(=O)O)c1` [Gemfibrozil, 5-(2,5-dimethylphenoxy)-2,2-dimethylpentanoic acid] here?
**A.** very poor solubility in water
